Results on 29 compounds are retold here after patent US7897765B2, “Therapeutic compounds and uses thereof” (Elixir Pharmaceuticals, Inc., priority 2003, dated 2011).

The test system of one assay is male C57BL/6J mice. As to the kind of experiment: fast-refeed (refeeding) assay, food intake. It is filed as in vivo. As for the experimental part: Food is removed at 6 pm for an overnight (˜16 hour) fast. Beginning at 10 am on the next morning, mice are administered with either vehicle (e.g., saline+acetic acid, pH=5) or the compound of interest. Mice are then returned to their home cages and pre-weighed food (approximately 90 grams) is immediately returned to the food hoppers in each cage. The weight of the food remaining in the food hoppers is measured at 30 minutes, 1 hour, 2 hours, and 4 hours post compound/vehicle administration. Final body weights are then recorded for the mice.
Animals: For this particular experiment, male C57BL/6J mice (Vendor: Taconic; Age: 7 weeks; Weight Range: 19-25 g) were used. The animals were housed individually during acclimation to facility (3-5 days) and throughout the study. […]
• Mice were weighed and sorted into groups based on Body Weight. • Food was removed at 6 pm for an overnight (˜16 hour) fast. […] After injections mice were returned to their home cages. • Following each injection, pre-weighed food was immediately returned to the food hoppers. • Note: food was weighed the morning injections were administered. • Mouse weighed • Food weighed (approx. 90 g) • Mouse injected • Pre-weighed food returned to hopper • Food Weights were measured at 30 min, 1 hr, 2 hr, and 4 hrs post injection. • Final body weights were recorded and mice were euthanized via CO2 asphyxiation.

For another assay, the target named is GHS-R (Homo sapiens, UniProt Q92847). The assay is described as follows: cell based assay of GHS-R antagonist/agonist activity. On the set-up: key: A refers to a compound having antagonist activity with Ki<100 nM in a cell based assay; B refers to a compound having agonist activity with EC50<100 nM in a cell based assay; C refers to a compound having antagonist activity of Ki>100 nM and <1500 nM in a cell based assay; D refers to a compound having antagonist activity with Ki, <100 nM and agonist activity with EC50<100 nM in a cell-based assay; E refers to other exemplary compounds. The note with it: GHS-R antagonist Ki and/or agonist EC50 class. The method, boiled down:
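COS-7 cells transfected with GHS-R, labelled with [3H]-myo-inositol, preincubated in 10 mM LiCl buffer pH 7.4, then given compound 45 min at 37 °C; [3H]-IP isolated by anion exchange. Alternatively, CREB-luciferase reporter in transfected HEK293 with 5 h compound exposure. IC50/EC50 by nonlinear regression.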

Sequence of GHS-R (Q92847 whole entry, species assumed): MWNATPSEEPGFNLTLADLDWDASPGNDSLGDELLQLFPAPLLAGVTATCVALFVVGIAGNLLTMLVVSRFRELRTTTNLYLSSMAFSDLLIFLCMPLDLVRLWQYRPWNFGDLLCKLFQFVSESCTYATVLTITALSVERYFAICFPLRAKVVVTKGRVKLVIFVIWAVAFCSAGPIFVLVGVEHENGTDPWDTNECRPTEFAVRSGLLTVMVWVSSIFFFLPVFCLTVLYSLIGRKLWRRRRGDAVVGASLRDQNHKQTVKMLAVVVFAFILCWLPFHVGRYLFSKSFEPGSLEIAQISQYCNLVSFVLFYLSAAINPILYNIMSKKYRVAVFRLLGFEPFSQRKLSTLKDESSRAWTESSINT

As for substance P, in the assay with male C57BL/6J mice, the “feeding activity of mice in the fast refeed assay” value is “alters feeding activity”.
As to `CS(=O)(=O)N1CC2(CCN(C(=O)[C@@H](COCc3ccccc3)NC(=O)NCCN3CCOCC3)CC2)c2ccccc21` [Compound 92], the Activity result at GHS-R is listed as “E”.
On the same count and under the same terms, the value for `COCCCS(=O)(=O)N[C@H](COCc1ccccc1)C(=O)N1CCC2(CC1)CN(S(C)(=O)=O)c1ccccc12` [Compound 161] was “E”; that for `CN1CCC[C@@H]1C(=O)N[C@H](COCc1ccccc1)C(=O)N1CCC2(CC1)CN(S(C)(=O)=O)c1ccccc12` [Compound 32] was “C (C refers to a compound having antagonist activity of Ki>100 nM and <1500 nM in a cell based assay)”.
The same measure, in the same setting: the value for `CN(C)C(C)(C)C(=O)N[C@H](COCc1ccccc1)C(=O)N1CCC2(CC1)CN(S(C)(=O)=O)c1ccccc12` [Compound 131] was “B (B refers to a compound having agonist activity with EC50<100 nM in a cell based assay)”; that for `CS(=O)(=O)N1CC2(CCN(C(=O)[C@@H](COCc3ccccc3)NS(=O)(=O)CCN3CCC3)CC2)c2ccccc21` [Compound 105] was “E”; that for `CN(C)CC(=O)N[C@H](COCc1ccccc1)C(=O)N1CCC2(CC1)CNc1ccccc12` [Compound 68] was “E”.
In the case of `CC(=O)N(CC1CCN(C(=O)OC(C)(C)C)CC1)[C@H](COCc1ccccc1)C(=O)N1CCC2(CC1)CN(S(C)(=O)=O)c1ccccc12` [Compound 108], on GHS-R, the Activity result is “E”.
Same read-out and setting: the entry for `CN1CCC[C@H](C(=O)N[C@H](COCc2ccccc2)C(=O)N2CCC3(CC2)CN(S(C)(=O)=O)c2ccccc23)C1` [Compound 116] is “E”; for `CCN(CC)CC(=O)N[C@H](COCc1ccccc1)C(=O)N1CCC2(CC1)CN(S(C)(=O)=O)c1ccccc12` [Compound 90] it is “E”; for `C[C@@H](C(=O)N[C@H](COCc1ccccc1)C(=O)N1CCC2(CC1)CN(S(C)(=O)=O)c1ccccc12)N(C)C` [Compound 81] it is “E”.
As to `CS(=O)(=O)N1CC2(CCN(C(=O)[C@@H](COCc3ccccc3)N3CCCS3(=O)=O)CC2)c2ccccc21` [Compound 158], on GHS-R, the Activity entry was “E”.
For the compound `CC(=O)OCC(=O)N1CC2(CCN(C(=O)[C@@H](COCc3ccccc3)NC(=O)CN(C)C)CC2)c2ccccc21` [Compound 71], the Activity result at GHS-R is given as “E”.
Still for that read-out and setting: the value for `COC(=O)CC(=O)N1CC2(CCN(C(=O)[C@@H](COCc3ccccc3)NC(=O)CN(C)C)CC2)c2ccccc21` [Compound 72] was “E”.
On the same count and under the same terms, the entry for `CN1CC=C(C(=O)N[C@H](COCc2ccccc2)C(=O)N2CCC3(CC2)CN(S(C)(=O)=O)c2ccccc23)CC1` [Compound 99] is “E”; for `CCN(CC)CCS(=O)(=O)N[C@H](COCc1ccccc1)C(=O)N1CCC2(CC1)CN(S(C)(=O)=O)c1ccccc12` [Compound 8] it is “D (D refers to a compound having antagonist activity with Ki, <100 nM and agonist activity with EC50<100 nM in a cell-based assay)”; for `CC(C)(C)OC(=O)N1CCC=C(C(=O)N[C@H](COCc2ccccc2)C(=O)N2CCC3(CC2)CN(S(C)(=O)=O)c2ccccc23)C1` [Compound 106] it is “E”.
Take `CCN(CC)CCCS(=O)(=O)N[C@H](CCc1ccccc1)C(=O)N1CCC2(CC1)CN(S(C)(=O)=O)c1ccccc12` [Compound 163]: the Activity entry on GHS-R is recorded as “A (A refers to a compound having antagonist activity with Ki<100 nM in a cell based assay)”.
Still for that read-out and setting: the value for `CN1CCC(CN(C)[C@H](COCc2ccccc2)C(=O)N2CCC3(CC2)CN(S(C)(=O)=O)c2ccccc23)CC1.Cl.Cl` [Compound 22] was “C (C refers to a compound having antagonist activity of Ki>100 nM and <1500 nM in a cell based assay)”.
The same measure, in the same setting: the value for `CC(C)N1CC=C(C(=O)N[C@H](COCc2ccccc2)C(=O)N2CCC3(CC2)CN(S(C)(=O)=O)c2ccccc23)CC1.Cl` [Compound 49] was “C (C refers to a compound having antagonist activity of Ki>100 nM and <1500 nM in a cell based assay)”.
Turning to `CC(C)(C)OC(=O)N[C@H](COCc1ccccc1)C(=O)N1CCC2(CC1)CNc1ccccc12` [Compound 56], the Activity entry on GHS-R is on record as “E”.
`CS(=O)(=O)N1CC2(CCN(C(=O)[C@@H](COCc3ccccc3)NC(=S)NCc3ccco3)CC2)c2ccccc21` [Compound 87]: the Activity result at GHS-R is listed as “E”.
Still for that read-out and setting: the entry for `CC(C)N1CCC(C(=O)N[C@H](COCc2ccccc2)C(=O)N2CCC3(CC2)CN(S(C)(=O)=O)c2ccccc23)CC1` [Compound 110] is “E”; for `CN1CCC(C(=O)N[C@H](Cc2c[nH]c3ccccc23)C(=O)N2CCC3(CC2)CN(S(C)(=O)=O)c2ccccc23)CC1` [Compound 135] it is “E”.
Same read-out and setting: the value for `CC(C)(C)C(=O)N[C@H](COCc1ccccc1)C(=O)N1CCC2(CC1)CN(S(C)(=O)=O)c1ccccc12` [Compound 44] was “C (C refers to a compound having antagonist activity of Ki>100 nM and <1500 nM in a cell based assay)”; that for `CN1C2CCC1CC(S(=O)(=O)N[C@H](COCc1ccccc1)C(=O)N1CCC3(CC1)CN(S(C)(=O)=O)c1ccccc13)C2` (some centres unmarked) [Compound 152] was “C (C refers to a compound having antagonist activity of Ki>100 nM and <1500 nM in a cell based assay)”; that for `CN(C)CCC(=O)N[C@H](COCc1ccccc1)C(=O)N1CCC2(CC1)CN(S(C)(=O)=O)c1ccccc12` [Compound 89] was “E”.
For `CN1CCC(S(=O)(=O)N[C@H](COCc2ccccc2)C(=O)N2CCC3(CC2)CN(S(C)(=O)=O)c2ccccc23)CC1` [Compound 143], on GHS-R, the Activity entry is recorded as “A (A refers to a compound having antagonist activity with Ki<100 nM in a cell based assay)”.
Regarding `C[C@@H](OCc1ccccc1)C(NC(=O)C1CCN(C)CC1)C(=O)N1CCC2(CC1)CN(S(C)(=O)=O)c1ccccc12` (some centres unmarked) [Compound 137], the Activity entry on GHS-R is listed as “E”.
